Test results taken from patent US7605272B2, “IGF-1R inhibitor” (Kyowa Hakko Kirin Co., Ltd., priority 2005, dated 2009).
Where two headings read alike, the source gives them in different places.

What was measured:
NCI-H929 = experiment: Cytostatic activity on human multiple myeloma cell line NCI-H929 (WST-1); format: cell-based; settings: Homo sapiens; for inhibition at 10 µM: 10 μmol/L, read-out: cytostatic rate (%) H929 (10 μmol/L); for inhibition at 1 µM: read-out: cytostatic rate (%) H929 (1 μmol/L)
Protocol: (§1) The cytostatic rates of a test compound on human multiple myeloma cell lines NCI-H929 and KMS-11, were determined in the following manner.
(§2) For culturing NCI-H929, Roswell Park Memorial Institute's Medium (RPMI) 1640 (Gibco, Catalog No. 11875-093) containing 15% fetal bovine serum (Gibco, Catalog No. 10099-141), 1 mmol/L sodium pyruvate (Gibco, Catalog No. 11360-070), 10 mmol/L HEPES (Gibco, Catalog No. 15630-80), 4.5 g/L glucose (Sigma, Catalog No. G8769), 0.05 mmol/L 2-mercaptethanol (Nacalai Tesque, Catalog No. 21418-42) and penicillin/streptomycin (1:1) (Gibco, Catalog No. 15140-122) was used. For culturing KMS-11 cell, RPMI 1640 medium containing 10% fetal bovine serum and penicillin/streptomycin (1:1) was used. Each 80 μL of the NCI-H929 cell having a concentration of 1×10^5 cells/mL (or the KMS-11 cell having a concentration of 7.5×10^4 cells/mL) was inoculated to wells of a TC MICROWELL 96U plate (Nalge Nunc International, Catalog No. 163320) and was cultured in a 5% carbon dioxide gas incubator at 37° C. for 24 hours. Each 20 μL of a solution of the test compound in dimethyl sulfoxide (DMSO) which was prepared to make the final concentration to 1 μmol/L or 10 μmol/L, was added to each well. Each 20 μL of DMSO was added to the control well and the blank well to a final concentration of 0.1%. After adding the test compound, the cells were incubated in a 5% carbon dioxide gas incubator at 37° C. for 72 hours except for the blank well. After adding 20 μL of WST-1 reagent {4-[3-(4-iodophenyl)-2-(4-nitrophenyl)-2H-5-tetrazolio]-1,3-benzene disulfonate sodium salt} (Roche Diagnostics K.K., Catalog No. 1644807), which was diluted to 50% by RPMI medium to each well, the cells were further incubated at 37° C. for 2 hours. Then, the absorbances at 450 nm (reference wavelength: 690 nm) were measured with a microplate spectrophotometer SPECTRA max 340PC (Molecular Devices Corporation). The relative growth (%) of a well to which the test compound had been added and cultured for 72 hours was determined while setting the absorbance of a well to which not the test compound but DMSO alone had been added and cultured for 72 hours (control) as 100% and that of a well where the drugs are added (blank) as 0%. The cytostatic rate (%) of the test compound was determined by subtracting the calculated relative growth from 100.

IGF-1R = molecular target: T1, IGF-1R (Homo sapiens, UniProt P08069); experiment: IGF-1R inhibitory activity (kinase reaction, time-resolved fluoroimmunoassay); format: biochemical; settings: test compound 10 μmol/L
T1 construct: purchased Upstate Co. 14-465
T1 sequence (P08069 959-1367 limits assumed): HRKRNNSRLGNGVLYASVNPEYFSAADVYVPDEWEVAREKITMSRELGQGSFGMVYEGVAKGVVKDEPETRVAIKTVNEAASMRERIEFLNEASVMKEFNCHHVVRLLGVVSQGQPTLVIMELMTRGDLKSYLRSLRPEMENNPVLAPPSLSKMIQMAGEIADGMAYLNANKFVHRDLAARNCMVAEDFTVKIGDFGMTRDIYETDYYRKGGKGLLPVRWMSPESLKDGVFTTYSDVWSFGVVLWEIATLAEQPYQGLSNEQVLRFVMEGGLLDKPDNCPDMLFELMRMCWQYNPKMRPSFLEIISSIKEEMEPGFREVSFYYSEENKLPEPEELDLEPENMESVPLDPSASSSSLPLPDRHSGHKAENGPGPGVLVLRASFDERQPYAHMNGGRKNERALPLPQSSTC
Method in brief: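 Compounds were tested at a single 10 μmol/L concentration. Each was incubated with recombinant IGF-1R (200 μg/L), 10 mmol/L ATP, MgCl2/MnCl2 and Na3VO4 (pH 7.5) on immobilized poly(Glu-Tyr) peptide for 30 min at 24° C. Eu-anti-phosphotyrosine time-resolved fluorescence (340/615 nm) gave relative activity against no-compound and no-enzyme wells, reported as % inhibition.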

KMS-11 = experiment: Cytostatic activity on human multiple myeloma cell line KMS-11 (WST-1); format: cell-based; settings: Homo sapiens; for inhibition at 10 µM: 10 μmol/L, read-out: cytostatic rate (%) KMS-11 (10 μmol/L); for inhibition at 1 µM: read-out: cytostatic rate (%) KMS-11 (1 μmol/L)
Protocol: as §1, §2

[1] = IGF-1R active recombinant enzyme
[2] = NCI-H929, 72 h, 1 μmol/L, 72 hours
[3] = KMS-11, 72 h, 1 μmol/L, 72 hours
[4] = NCI-H929, 72 h, NCI-H929 cells, test compound 1 μmol/L, WST-1
[5] = KMS-11, 72 h, KMS-11 cells, test compound 1 μmol/L, WST-1

SMILES: O=C(Nc1ccccc1/C=C/c1n[nH]c2ccccc12)c1ccc(Br)s1 [Compound 34, (E)-5-bromo-N-{2-[2-(1H-indazol-3-yl)vinyl]phenyl}thiophene-2-carboxamide]
- inhibition at 10 µM (NCI-H929; NCI-H929, 72 h, 72 hours): 113%
- inhibition at 10 µM (IGF-1R; [1]): 99.2%
- inhibition at 10 µM (KMS-11; KMS-11, 72 h, 72 hours): 116%

SMILES: Cc1ccc(C(=O)Nc2ccccc2/C=C/c2n[nH]c3ccccc23)cc1 [Compound 5, (E)-N-{2-[2-(1H-indazol-3-yl)vinyl]phenyl}-4-methylbenzamide]
- inhibition at 10 µM (NCI-H929; NCI-H929, 72 h, 72 hours): 116%
- inhibition at 10 µM (IGF-1R; [1]): 99.1%
- inhibition at 10 µM (KMS-11; KMS-11, 72 h, 72 hours): 129%

SMILES: O=C(Nc1ccccc1/C=C/c1n[nH]c2ccccc12)c1ccc(F)cc1 [Compound 3, (E)-4-fluoro-N-{2-[2-(1H-indazol-3-yl)vinyl]phenyl}benzamide]
- inhibition at 10 µM (NCI-H929; NCI-H929, 72 h, 72 hours): 115%
- inhibition at 10 µM (IGF-1R; [1]): 99.1%
- inhibition at 10 µM (KMS-11; KMS-11, 72 h, 72 hours): 118%

SMILES: Cc1ccsc1C(=O)Nc1cc(C(=O)N2CCC3(CC2)OCCO3)ccc1/C=C/c1n[nH]c2ccccc12 [Compound 119, (E)-N-{5-(1,4-dioxa-8-azaspiro[4,5]decane-8-carbonyl)-2-[2-(1H-indazol-3-yl)vinyl]phenyl}-3-methylthiophene-2-carboxamide]
- inhibition at 10 µM (NCI-H929; NCI-H929, 72 hours): 117%
- inhibition at 10 µM (IGF-1R): 102%
- inhibition at 10 µM (KMS-11; KMS-11, 72 hours): 116%

SMILES: COCCOc1ccc(/C=C/c2n[nH]c3ccccc23)c(NC(=O)c2sccc2C)c1 [Compound 275, (E)-N-{2-[2-(1H-indazol-3-yl)vinyl]-5-(2-methoxyethoxy)phenyl}-3-methylthiophene-2-carboxamide]
- inhibition at 1 µM (NCI-H929; [2]): 118%
- inhibition at 10 µM (IGF-1R; [1]): 98.6%
- inhibition at 1 µM (KMS-11; [3]): 116%

SMILES: Cc1ccsc1C(=O)Nc1cc(CN2CCC(CCO)CC2)ccc1/C=C/c1n[nH]c2ccccc12 [Compound 311, (E)-N-{5-[4-(2-hydroxyethyl)piperidin-1-ylmethyl]-2-[2-(1H-indazol-3-yl)vinyl]phenyl}-3-methylthiophene-2-carboxamide]
- inhibition at 1 µM (NCI-H929; [4]): 117%
- inhibition at 10 µM (IGF-1R; [1]): 104%
- inhibition at 1 µM (KMS-11; [5]): 111%

SMILES: Cc1ccsc1C(=O)Nc1cc(C(=O)NCCN2CCOCC2)ccc1/C=C/c1n[nH]c2ccccc12 [Compound 282, (E)-N-(2-[2-(1H-indazol-3-yl)vinyl]-5-{N-[2-(morpholin-4-yl)ethyl]carbamoyl}phenyl)-3-methylthiophene-2-carboxamide]
- inhibition at 1 µM (NCI-H929; [2]): 130%
- inhibition at 10 µM (IGF-1R; [1]): 99.2%
- inhibition at 1 µM (KMS-11; [3]): 123%

SMILES: O=C(Nc1nncs1)c1ccccc1/C=C/c1n[nH]c2ccccc12 [Compound 145, (E)-2-[2-(1H-indazol-3-yl)vinyl]-N-([1,3,4]thiadiazol-2-yl)benzamide]
- inhibition at 10 µM (NCI-H929; NCI-H929, 72 h, 72 hours): 126%
- inhibition at 10 µM (IGF-1R; [1]): 93.4%
- inhibition at 10 µM (KMS-11; KMS-11, 72 h, 72 hours): 116%

SMILES: Nc1cccc2c1C(=O)N(c1cc(C(=O)N3CCC(N4CCOCC4)CC3)ccc1/C=C/c1n[nH]c3ccccc13)C2=O [Compound 317, (E)-4-amino-2-{2-[2-(1H-indazol-3-yl)vinyl]-5-[4-(morpholin-4-yl)piperidin-1-ylcarbonyl]phenyl}isoindole-1,3-dione]
- inhibition at 1 µM (NCI-H929; [4]): 114%
- inhibition at 10 µM (IGF-1R; [1]): 103%
- inhibition at 1 µM (KMS-11; [5]): 105%

SMILES: CCCS(=O)(=O)NCCOc1ccc(/C=C/c2n[nH]c3ccccc23)c(NC(=O)c2sccc2C)c1OC [Compound 338, (E)-N-{6-[2-(1H-indazol-3-yl)vinyl]-2-methoxy-3-[2-(propylsulfonylamino)ethoxy]phenyl}-3-methylthiophene-2-carboxamide]
- inhibition at 1 µM (NCI-H929; [4]): 120%
- inhibition at 10 µM (IGF-1R; [1]): 99%
- inhibition at 1 µM (KMS-11; [5]): 122%

SMILES: CN(C)c1ccc(C(=O)Nc2ccccc2/C=C/c2n[nH]c3ccccc23)cc1 [Compound 17, (E)-4-dimethylamino-N-{2-[2-(1H-indazol-3-yl)vinyl]phenyl}benzamide]
- inhibition at 10 µM (NCI-H929; NCI-H929, 72 h, 72 hours): 115%
- inhibition at 10 µM (IGF-1R; [1]): 98.3%
- inhibition at 10 µM (KMS-11; KMS-11, 72 h, 72 hours): 127%

SMILES: Cc1ccccc1C(=O)Nc1ccccc1/C=C/c1n[nH]c2ccccc12 [Compound 30, (E)-N-{2-[2-(1H-indazol-3-yl)vinyl]phenyl}-2-methylbenzamide]
- inhibition at 10 µM (NCI-H929; NCI-H929, 72 h, 72 hours): 115%
- inhibition at 10 µM (IGF-1R; [1]): 97.6%
- inhibition at 10 µM (KMS-11; KMS-11, 72 h, 72 hours): 115%

SMILES: COc1cc(/C=C/c2n[nH]c3ccccc23)c(NC(=O)c2cccn2C)cc1OC [Compound 96, (E)-N-{2-[2-(1H-indazol-3-yl)vinyl]-4,5-dimethoxyphenyl}-1-methyl-1H-pyrrole-2-carboxamide]
- inhibition at 10 µM (NCI-H929; NCI-H929, 72 h, 72 hours): 117%
- inhibition at 10 µM (IGF-1R): 100%
- inhibition at 10 µM (KMS-11; KMS-11, 72 h, 72 hours): 117%

SMILES: COCC(=O)N1CCN(Cc2ccc(/C=C/c3n[nH]c4ccccc34)c(NC(=O)c3sccc3C)c2)CC1 [Compound 244, (E)-N-{2-[2-(1H-indazol-3-yl)vinyl]-5-[4-(2-methoxyacetyl)piperazin-1-ylmethyl]phenyl}-3-methylthiophene-2-carboxamide]
- inhibition at 1 µM (NCI-H929; [2]): 127%
- inhibition at 10 µM (IGF-1R; [1]): 102%
- inhibition at 1 µM (KMS-11; [3]): 124%

SMILES: CC(=O)c1ccc(C(=O)Nc2ccccc2/C=C/c2n[nH]c3ccccc23)s1 [Compound 43, (E)-5-acetyl-N-{2-[2-(1H-indazol-3-yl)vinyl]phenyl}thiophene-2-carboxamide]
- inhibition at 10 µM (NCI-H929; NCI-H929, 72 h, 72 hours): 113%
- inhibition at 10 µM (IGF-1R; [1]): 96.3%
- inhibition at 10 µM (KMS-11; KMS-11, 72 h, 72 hours): 112%

SMILES: Cc1ccsc1C(=O)Nc1cc(F)ccc1/C=C/c1n[nH]c2ccccc12 [Compound 265, (E)-N-{5-fluoro-2-[2-(1H-indazol-3-yl)vinyl]phenyl}-3-methylthiophene-2-carboxamide]
- inhibition at 1 µM (NCI-H929; [2]): 115%
- inhibition at 10 µM (IGF-1R; [1]): 98.4%
- inhibition at 1 µM (KMS-11; [3]): 96.9%

SMILES: COc1ccc(C(=O)Nc2ccccc2/C=C/c2n[nH]c3ccccc23)cc1 [Compound 4, (E)-N-{2-[2-(1H-indazol-3-yl)vinyl]phenyl}-4-methoxybenzamide]
- inhibition at 10 µM (NCI-H929; NCI-H929, 72 h, 72 hours): 114%
- inhibition at 10 µM (IGF-1R; [1]): 98.5%
- inhibition at 10 µM (KMS-11; KMS-11, 72 h, 72 hours): 130%

SMILES: CC(=O)NC1CCN(C(=O)c2ccc(/C=C/c3n[nH]c4ccccc34)c(NC(=O)c3sccc3C)c2)CC1 [Compound 301, (E)-N-{5-[4-(acetylamino)piperidin-1-ylcarbonyl]-2-[2-(1H-indazol-3-yl)vinyl]phenyl}-3-methylthiophene-2-carboxamide]
- inhibition at 1 µM (NCI-H929; [2]): 119%
- inhibition at 10 µM (IGF-1R; [1]): 98.3%
- inhibition at 1 µM (KMS-11; [3]): 100%

SMILES: Cc1ccsc1C(=O)Nc1cc(CN2CCN(S(C)(=O)=O)CC2)ccc1/C=C/c1n[nH]c2ccccc12 [Compound 232, (E)-N-{2-[2-(1H-indazol-3-yl)vinyl]-5-(4-methanesulfonylpiperazin-1-ylmethyl)phenyl}-3-methylthiophene-2-carboxamide]
- inhibition at 1 µM (NCI-H929; [2]): 124%
- inhibition at 10 µM (IGF-1R; [1]): 101%
- inhibition at 1 µM (KMS-11; [3]): 116%

SMILES: CCCNC(=O)c1ccc(/C=C/c2n[nH]c3ccccc23)c(NC(=O)c2sccc2C)c1 [Compound 112, (E)-N-{2-[2-(1H-indazol-3-yl)vinyl]-5-(N-propylcarbamoyl)-phenyl}-3-methylthiophene-2-carboxamide]
- inhibition at 10 µM (IGF-1R): 98.5%
- inhibition at 10 µM (KMS-11; KMS-11, 72 h, 72 hours): 126%

SMILES: Nc1ccc(C(=O)Nc2ccc(OCCN3CCOCC3)cc2/C=C/c2n[nH]c3ccccc23)s1 [Compound 106, (E)-5-amino-N-{2-[2-(1H-indazol-3-yl)vinyl]-4-(2-morpholinoethoxy)phenyl}thiophene-2-carboxamide]
- inhibition at 10 µM (NCI-H929; NCI-H929, 72 h, 72 hours): 112%
- inhibition at 10 µM (KMS-11; KMS-11, 72 h, 72 hours): 115%

SMILES: CCN(CC)C(=O)c1ccc(/C=C/c2n[nH]c3ccccc23)c(NC(=O)c2sccc2C)c1 [Compound 101, (E)-N-{5-(N,N-diethylcarbamoyl)-2-[2-(1H-indazol-3-yl)vinyl]phenyl}-3-methylthiophene-2-carboxamide]
- inhibition at 10 µM (IGF-1R): 100%
- inhibition at 10 µM (KMS-11; KMS-11, 72 hours): 117%
